Test results published in ChEMBL document CHEMBL1154097, “Novel 3,3'-diindolylmethane derivatives: synthesis and cytotoxicity, structural characterization in solid state” (Eur J Med Chem, 2009).
Active and inactive are the calls of the source. The rule behind the calls is not given here.

Columns and labels:
[1] = system: UO-31; experiment: Cytotoxicity against human UO31 cells; format: functional
[2] = system: SK-MEL-2; experiment: Cytotoxicity against human SK-MEL-2 cells; format: functional
[3] = system: PC-3; experiment: Cytotoxicity against human PC3 cells; format: functional
[4] = system: Malme-3M; experiment: Cytotoxicity against human MALME-3M cells at 10 uM; format: functional, cell-based
[5] = system: IGROV-1; experiment: Cytotoxicity against human IGROV1 cells; format: functional

SMILES | Activity [1] [%] | Activity [2] [%] | Activity [3] [%] | Activity [4] | Activity [5] [%]
Fc1cc(F)cc(C(c2c[nH]c3ccccc23)c2c[nH]c3ccccc23)c1 | 52.86 | 58.84 | 67.07 | Active | -6.52
COc1ccc2[nH]cc(C(c3cc(F)cc(F)c3)c3c[nH]c4ccc(OC)cc34)c2c1 | 43.23 | 62.49 | 50.16 | Active | -7.1
